Test results reported in ChEMBL document CHEMBL1777706, “Discovery of selective and orally available spiro-3-piperidyl ATP-competitive MK2 inhibitors” (Bioorg Med Chem Lett, 2011).
Active and inactive are the calls of the source. No cut-off for these calls is given here.

Assays:
[1] = Inhibition of p38
[2] = target: Serine/threonine-protein kinase Chk2 (Homo sapiens) (UniProt O96017); experiment: Inhibition of CHK2 at 1 uM
[3] = target: Serine/threonine-protein kinase pim-1 (Homo sapiens) (UniProt P11309); experiment: Inhibition of PIM1 at 1 uM
[4] = target: Mitogen-activated protein kinase 1 (Homo sapiens) (UniProt P28482); experiment: Inhibition of ERK2 at 1 uM
[5] = target: T1, Serine/threonine-protein kinase 17A (Homo sapiens) (UniProt Q9UEE5); experiment: Inhibition of DRAK1 at 1 uM
T1 sequence (whole entry): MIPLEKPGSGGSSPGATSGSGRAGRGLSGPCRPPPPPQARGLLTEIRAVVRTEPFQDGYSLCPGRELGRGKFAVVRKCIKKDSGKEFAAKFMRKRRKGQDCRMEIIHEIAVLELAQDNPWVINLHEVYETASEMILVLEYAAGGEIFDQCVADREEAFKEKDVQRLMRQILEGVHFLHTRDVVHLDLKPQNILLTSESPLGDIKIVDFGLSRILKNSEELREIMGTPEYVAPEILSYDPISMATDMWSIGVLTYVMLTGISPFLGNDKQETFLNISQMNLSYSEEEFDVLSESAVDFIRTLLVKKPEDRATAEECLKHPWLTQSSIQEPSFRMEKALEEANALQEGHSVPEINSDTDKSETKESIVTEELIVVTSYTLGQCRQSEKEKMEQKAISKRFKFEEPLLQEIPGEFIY

[6] = target: T2, MAP kinase-activated protein kinase 2 (Homo sapiens, UniProt P49137); experiment: Inhibition of MK2 pretreated for 30 mins before fluorescein labeled substrate peptide addition measured after 2 hrs by IMAP assay
[7] = target: Mitogen-activated protein kinase 3 (Homo sapiens) (UniProt P27361); experiment: Inhibition of ERK1 at 1 uM
THP-1 = experiment: Antiinflammatory activity in human THP1 cells assessed as inhibition of LPS-induced TNFalpha production pretreated 30 mins before LPS challenge measured after 4 hrs; type: functional, cell-based
[8] = target: Serine/threonine-protein kinase pim-3 (Homo sapiens) (UniProt Q86V86); experiment: Inhibition of PIM3 at 1 uM
PBMC = experiment: Antiinflammatory activity in human PBMC cells assessed as inhibition of LPS-induced TNFalpha production pretreated 30 mins before LPS challenge measured after 4 hrs by ELISA; type: functional, cell-based
[9] = target: T2, MAP kinase-activated protein kinase 2; experiment: Inhibition of MK2 in LPS-stimulated human THP1 cells assessed as inhibition of Hsp27 phosphorylation pretreated 60 mins before LPS challenge measured after 10 mins; type: cell-based, THP-1

Chain of Serine/threonine-protein kinase pim-1 (Homo sapiens) (P11309 whole entry, looked up): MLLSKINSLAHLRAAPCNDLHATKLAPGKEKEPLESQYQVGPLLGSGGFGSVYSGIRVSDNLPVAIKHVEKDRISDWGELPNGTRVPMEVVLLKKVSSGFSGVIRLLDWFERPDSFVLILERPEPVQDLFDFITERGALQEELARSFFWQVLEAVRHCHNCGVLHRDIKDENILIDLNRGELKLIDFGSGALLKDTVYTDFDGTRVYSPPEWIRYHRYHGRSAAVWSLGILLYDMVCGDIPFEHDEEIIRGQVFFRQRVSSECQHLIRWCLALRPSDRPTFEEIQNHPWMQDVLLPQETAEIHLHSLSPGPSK
Chain of Mitogen-activated protein kinase 1 (Homo sapiens) (P28482 whole entry, looked up): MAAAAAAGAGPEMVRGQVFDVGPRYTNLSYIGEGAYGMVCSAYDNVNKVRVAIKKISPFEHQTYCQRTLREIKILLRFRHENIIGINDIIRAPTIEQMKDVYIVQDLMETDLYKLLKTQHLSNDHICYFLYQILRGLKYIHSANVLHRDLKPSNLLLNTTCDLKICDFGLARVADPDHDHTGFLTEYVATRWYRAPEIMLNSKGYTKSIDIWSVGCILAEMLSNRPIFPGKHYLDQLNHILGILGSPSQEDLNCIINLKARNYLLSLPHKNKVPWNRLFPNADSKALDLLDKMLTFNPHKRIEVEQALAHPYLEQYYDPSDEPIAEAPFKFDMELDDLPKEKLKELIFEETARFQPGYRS
Chain of Mitogen-activated protein kinase 3 (Homo sapiens) (P27361 whole entry): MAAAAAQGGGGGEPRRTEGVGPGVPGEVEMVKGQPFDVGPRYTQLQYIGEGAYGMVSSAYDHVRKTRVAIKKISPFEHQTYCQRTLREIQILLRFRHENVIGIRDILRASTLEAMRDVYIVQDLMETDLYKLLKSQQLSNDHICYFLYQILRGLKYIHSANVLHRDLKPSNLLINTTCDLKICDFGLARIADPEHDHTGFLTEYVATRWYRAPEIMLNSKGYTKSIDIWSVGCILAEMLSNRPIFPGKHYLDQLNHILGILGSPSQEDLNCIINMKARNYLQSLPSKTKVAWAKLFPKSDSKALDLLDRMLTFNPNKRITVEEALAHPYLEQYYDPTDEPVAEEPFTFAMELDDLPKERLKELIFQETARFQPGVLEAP
T2 sequence (P49137 whole entry): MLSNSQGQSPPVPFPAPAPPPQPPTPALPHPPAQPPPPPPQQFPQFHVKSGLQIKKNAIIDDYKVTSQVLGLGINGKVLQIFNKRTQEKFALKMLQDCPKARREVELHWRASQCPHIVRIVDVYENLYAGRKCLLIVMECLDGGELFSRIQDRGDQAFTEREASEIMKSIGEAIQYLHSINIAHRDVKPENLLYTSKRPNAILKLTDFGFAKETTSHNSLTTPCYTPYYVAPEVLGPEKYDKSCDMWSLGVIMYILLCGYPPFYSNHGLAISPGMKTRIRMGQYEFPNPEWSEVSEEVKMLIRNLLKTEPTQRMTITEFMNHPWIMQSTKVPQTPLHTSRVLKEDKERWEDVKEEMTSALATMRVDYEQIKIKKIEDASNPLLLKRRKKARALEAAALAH
Chain of Serine/threonine-protein kinase Chk2 (Homo sapiens) (O96017 whole entry): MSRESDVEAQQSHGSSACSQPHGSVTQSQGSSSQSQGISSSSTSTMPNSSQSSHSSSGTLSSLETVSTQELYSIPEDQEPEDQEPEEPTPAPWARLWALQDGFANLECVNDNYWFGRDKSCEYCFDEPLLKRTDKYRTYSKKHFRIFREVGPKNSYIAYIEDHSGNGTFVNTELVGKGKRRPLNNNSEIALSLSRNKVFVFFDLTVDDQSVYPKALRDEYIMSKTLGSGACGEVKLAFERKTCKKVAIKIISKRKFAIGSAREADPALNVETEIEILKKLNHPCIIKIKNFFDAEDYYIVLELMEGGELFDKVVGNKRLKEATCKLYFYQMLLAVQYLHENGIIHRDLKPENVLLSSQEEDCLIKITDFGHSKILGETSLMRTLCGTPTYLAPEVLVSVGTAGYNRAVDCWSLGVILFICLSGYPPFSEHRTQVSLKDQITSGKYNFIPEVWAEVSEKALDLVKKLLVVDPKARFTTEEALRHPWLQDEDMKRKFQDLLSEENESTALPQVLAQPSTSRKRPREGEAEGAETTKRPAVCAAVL

| Structure (SMILES) | inhibition [1] | inhibition [2] [%] | inhibition [3] [%] | inhibition [4] [%] | inhibition [5] [%] | EC50 [6] [nM] | inhibition [7] [%] | EC50 (THP-1) [nM] | inhibition [8] [%] | EC50 (PBMC) [nM] | EC50 [9] [nM] |
| --- | --- | --- | --- | --- | --- | --- | --- | --- | --- | --- | --- |
| O=C1NCC2(CCNCC2)c2[nH]c(-c3ccnc(-c4cccc(F)c4)n3)cc21 | inactive | > 80 | > 80 | > 80 | > 80 | 8.3 | > 80 | 1400 | > 80 | – | – |
| COc1cncc(-c2nccc(-c3cc4c([nH]3)[C@@]3(CCCNC3)CNC4=O)n2)c1 | inactive | > 80 | > 80 | > 80 | > 80 | 126 | > 80 | 2200 | > 80 | > 10000 | 2300 |
| O=C1NCC2(CCNCC2)c2[nH]c(-c3ccnc(-c4cccc(C(F)(F)F)c4)n3)cc21 | inactive | > 80 | > 80 | > 80 | > 80 | 15 | > 80 | 4200 | > 80 | – | – |
| O=C1NCC2(CCNCC2)c2[nH]c(-c3ccnc(-c4cccnc4)n3)cc21 | inactive | > 80 | > 80 | > 80 | > 80 | 1.1 | > 80 | > 10000 | > 80 | – | – |
| O=C1NCC2(CCNCC2)c2[nH]c(-c3ccnc(-c4cc(Cl)cc(Cl)c4)n3)cc21 | inactive | > 80 | > 80 | > 80 | > 80 | 4.5 | > 80 | 6300 | > 80 | – | – |
| O=C1NCC2(CCNCC2)c2[nH]c(-c3ccnc(-c4ccc(C(F)(F)F)cc4)n3)cc21 | inactive | > 80 | > 80 | > 80 | > 80 | 6.9 | > 80 | 6300 | > 80 | – | – |
| O=C1NCC2(CCNCC2)c2[nH]c(-c3ccnc(-c4cnc5ccccc5c4)n3)cc21 | inactive | > 80 | > 80 | > 80 | > 80 | – | > 80 | 4800 | > 80 | – | – |
| O=C1NC[C@]2(CCCNC2)c2[nH]c(-c3ccnc(-c4cccnc4)n3)cc21 | inactive | > 80 | > 80 | > 80 | > 80 | 288 | > 80 | 8700 | > 80 | 4300 | 5800 |
| O=C1NCC2(CCNCC2)c2[nH]c(-c3ccnc(-c4ccc5c(c4)OCCCO5)n3)cc21 | inactive | > 80 | > 80 | > 80 | > 80 | 10 | > 80 | 4900 | > 80 | – | – |
| O=C1NCC2(CCNCC2)c2[nH]c(-c3ccnc(-c4ccccc4F)n3)cc21 | inactive | > 80 | > 80 | > 80 | > 80 | 29 | > 80 | 4200 | > 80 | – | – |
| O=C1NC[C@@]2(CCCNC2)c2[nH]c(-c3ccnc(-c4ccc5c(c4)OCO5)n3)cc21 | inactive | > 80 | > 80 | > 80 | > 80 | 7.4 | > 80 | 850 | > 80 | 450 | 500 |
| O=C1NCC2(CCCNC2)c2[nH]c(-c3ccnc(-c4cccnc4)n3)cc21 (racemic) | inactive | > 80 | > 80 | > 80 | > 80 | 18 | > 80 | 3000 | > 80 | 3300 | 2100 |
| O=C1NCC2(CCNCC2)c2[nH]c(-c3ccnc(-c4ccc5ccccc5c4)n3)cc21 | inactive | > 80 | > 80 | > 80 | > 80 | 5.1 | > 80 | 3600 | > 80 | – | – |
| Nc1ncc(-c2nccc(-c3cc4c([nH]3)C3(CCNCC3)CNC4=O)n2)cn1 | inactive | > 80 | > 80 | > 80 | > 80 | 5 | > 80 | > 10000 | > 80 | – | – |
| O=C1NCC2(CCNCC2)c2[nH]c(-c3ccnc(-c4cnc(NC5CCCC5)nc4)n3)cc21 | inactive | > 80 | > 80 | > 80 | > 80 | 4.9 | > 80 | 2600 | > 80 | – | – |
| O=C1NCC2(CCOCC2)c2[nH]c(-c3ccnc(-c4ccc5c(c4)OCO5)n3)cc21 | inactive | > 80 | > 80 | > 80 | > 80 | 724 | > 80 | > 10000 | > 80 | – | – |
| CC(=O)c1cccc(-c2nccc(-c3cc4c([nH]3)C3(CCNCC3)CNC4=O)n2)c1 | inactive | > 80 | > 80 | > 80 | > 80 | 11 | > 80 | 6200 | > 80 | – | – |
| CC(C)c1cccc(-c2nccc(-c3cc4c([nH]3)C3(CCNCC3)CNC4=O)n2)c1 | inactive | > 80 | > 80 | > 80 | > 80 | 112 | > 80 | > 10000 | > 80 | – | – |
| Nc1ccc(-c2nccc(-c3cc4c([nH]3)C3(CCNCC3)CNC4=O)n2)cn1 | inactive | > 80 | > 80 | > 80 | > 80 | 15 | > 80 | > 10000 | > 80 | – | – |
| O=C1NC[C@]2(CCCNC2)c2[nH]c(-c3ccnc(-c4ccc5c(c4)OCO5)n3)cc21 | inactive | > 80 | > 80 | > 80 | > 80 | 91 | > 80 | 8300 | > 80 | 3000 | 7700 |
| COc1cncc(-c2nccc(-c3cc4c([nH]3)[C@]3(CCCNC3)CNC4=O)n2)c1 | inactive | > 80 | > 80 | > 80 | > 80 | 9.3 | > 80 | 2400 | > 80 | 1300 | 1100 |
| COc1cncc(-c2nccc(-c3cc4c([nH]3)C3(CCNCC3)CNC4=O)n2)c1 | inactive | > 80 | > 80 | > 80 | > 80 | 6.9 | > 80 | > 10000 | > 80 | – | – |
| CC(C)(C)c1ccc(-c2nccc(-c3cc4c([nH]3)C3(CCNCC3)CNC4=O)n2)cc1 | inactive | > 80 | > 80 | > 80 | > 80 | 6.2 | > 80 | 5900 | > 80 | – | – |
| CC(=O)c1ccc(-c2nccc(-c3cc4c([nH]3)C3(CCNCC3)CNC4=O)n2)cc1 | inactive | > 80 | > 80 | > 80 | > 80 | 9.8 | > 80 | 5000 | > 80 | – | – |
| CCC(=O)Nc1ccc(-c2nccc(-c3cc4c([nH]3)C3(CCNCC3)CNC4=O)n2)cn1 | inactive | > 80 | > 80 | > 80 | > 80 | 6.2 | > 80 | > 10000 | > 80 | – | – |
| O=C1NCCc2[nH]c(-c3ccnc(-c4ccccc4F)c3)cc21 | inactive | > 80 | > 80 | – | > 80 | – | – | 9100 | > 80 | – | – |
